The values that follow come from article PMC4811503, “A method for quantification of exportin-1 (XPO1) occupancy by Selective Inhibitor of Nuclear Export (SINE) compounds” (Oncotarget, 2015).

What is called IC50 is the point on the concentration scale where inhibition reaches its midpoint.

SMILES strings stand for the structures. Like-named read-outs stand apart in the source and are kept apart here.

For one assay, the system named is HEL. As to the kind of experiment: MTT cytotoxicity assay. In kind it is cell-based. Particulars: Homo sapiens, read-out: Selinexor IC50 (μM). Background: Tetrazolium dyes change colour on reduction, which living cells bring about.
Another assay relates to UCH1. The assay can be described thus: MTT cytotoxicity assay. In kind it is cell-based. Particulars: read-out: Selinexor IC50 (μM).
Assay [1] addresses T1, XPO1 (Mus musculus, UniProt Q6P5F9).
T1 construct: the blood from the mice for each dose (n = 4) was pooled and PBMCs were immediately isolated; from tissue; host or cells: PBMCs from pooled blood of orally dosed mice
The assay can be described thus: XPO1 occupancy assay in PBMCs from mice dosed orally with selinexor. In kind it is in vivo. As to the method:
In order to have enough PBMCs to assay, the blood from the mice for each dose (n = 4) was pooled and PBMCs were immediately isolated. Mouse PBMCs were incubated with 1 nM b-LMB for 1.5 hours ex vivo then collected and prepared for the XPO1 occupancy assay.
Using similar conditions, we sought to determine the duration of XPO1 occupancy by SINE compounds in mice. […] The mice were then terminally bled at 4, 24, 36, 48, 60, 72, and 96 hours post dose (n = 4 mice per dose per time point). Blood for each dose at each time point was pooled and PMBCs were isolated. Mouse PBMCs were incubated with 1 nM b-LMB for 1.5 hours ex vivo before being processed for the XPO1 occupancy assay. Both 3 and 10 mg/kg had time-dependent increases in the ratio of free-fraction XPO1, with 50% XPO1 occupancy being sustained for up to 72 hours post-treatment (Figure 5B).
Human donor blood collected in Vacutainer® EDTA tubes (BD) (BioreclamationIVT) was purchased for peripheral blood mononuclear cells (PBMCs) isolation. […] Mouse whole blood was collected in Vacutainer® EDTA tubes (BD) and pooled from each group for each time point. Human and mouse PBMCs were separated by Ficoll (GE Healthcare) gradient. Human PMBCs were cryogenically preserved in Recovery™ Cell Culture Freezing Medium (Gibco). […] Freshly isolated PBMCs from control or selinexor-treated mice were treated ex vivo with 1 nM b-LMB for 1.5 hours prior to collection and processing for the XPO1 occupancy assay.
(§1) Cells were collected, washed with PBS, and lysed with RIPA Buffer (Thermo Scientific) with protease inhibitors [Complete Ultra Tablets, Mini, EDTA-free, Easy pack (Roche), PhosStop Easy (Roche)]. A portion of the lysate was reserved (input) while the rest was added to washed Dynabeads MyOne Streptavidin T1 (Invitrogen) with RIPA Buffer. Samples were incubated overnight with constant rotation at 4°C. Beads were then washed 5 times with modified RIPA (150 mM NaCl, 50 mM Tris, 1% NP-40, 0.1% Na deoxycholate, 1 mM EDTA, pH 7.8). The reserved portion of lysates (input) and the beads were each mixed with Protein Simple buffer (Protein Simple), DTT (Invitrogen), and fluorescent standards (Protein Simple), then boiled at 95°C for 10 min. Eluates and inputs were analyzed using a capillary western method (Peggy Sue; Protein Simple) with the following primary antibodies: XPO1 (Santa Cruz) and β-actin (Santa Cruz). Capillary westerns were performed by SBH Sciences (Natick, MA). Peak areas corresponding to the protein molecular weight of XPO1 and actin were compared for sample inputs, while the ratio of XPO1 peak areas in eluate to input (ratio of bound or free-fraction XPO1) versus compound concentration were used in XLFit model 205 to calculate 50% and 90% occupancy curves.

The subject of another assay is HT1080. The assay can be described thus: MTT cytotoxicity assay. Particulars: Homo sapiens, HT-1080, read-out: Selinexor IC50 (μM). In kind it is cell-based.
A further assay relates to MM.1S. The assay can be described thus: MTT cytotoxicity assay. The note with it: Homo sapiens, MM1.S. In kind it is cell-based.
The subject of a further assay is LS174T. As to the kind of experiment: MTT cytotoxicity assay. Particulars: Homo sapiens, read-out: Selinexor IC50 (μM). The assay is classed as cell-based.
In assay [2] the target is XPO1 (Homo sapiens, UniProt O14980). The assay can be described thus: XPO1 occupancy assay in human PBMCs treated ex vivo. The assay is classed as cell-based. Further details: performed ex vivo on PBMCs isolated from pooled healthy donor blood; host or cells: human PBMCs from pooled healthy donor blood, fresh or revived after cryopreservation. Particulars: then 1 nM b-LMB 1 hour. As to the method: as §1

Where [3] appears, read: single oral dose, 4 hours post-dosing.

T1 sequence (Q6P5F9 whole entry): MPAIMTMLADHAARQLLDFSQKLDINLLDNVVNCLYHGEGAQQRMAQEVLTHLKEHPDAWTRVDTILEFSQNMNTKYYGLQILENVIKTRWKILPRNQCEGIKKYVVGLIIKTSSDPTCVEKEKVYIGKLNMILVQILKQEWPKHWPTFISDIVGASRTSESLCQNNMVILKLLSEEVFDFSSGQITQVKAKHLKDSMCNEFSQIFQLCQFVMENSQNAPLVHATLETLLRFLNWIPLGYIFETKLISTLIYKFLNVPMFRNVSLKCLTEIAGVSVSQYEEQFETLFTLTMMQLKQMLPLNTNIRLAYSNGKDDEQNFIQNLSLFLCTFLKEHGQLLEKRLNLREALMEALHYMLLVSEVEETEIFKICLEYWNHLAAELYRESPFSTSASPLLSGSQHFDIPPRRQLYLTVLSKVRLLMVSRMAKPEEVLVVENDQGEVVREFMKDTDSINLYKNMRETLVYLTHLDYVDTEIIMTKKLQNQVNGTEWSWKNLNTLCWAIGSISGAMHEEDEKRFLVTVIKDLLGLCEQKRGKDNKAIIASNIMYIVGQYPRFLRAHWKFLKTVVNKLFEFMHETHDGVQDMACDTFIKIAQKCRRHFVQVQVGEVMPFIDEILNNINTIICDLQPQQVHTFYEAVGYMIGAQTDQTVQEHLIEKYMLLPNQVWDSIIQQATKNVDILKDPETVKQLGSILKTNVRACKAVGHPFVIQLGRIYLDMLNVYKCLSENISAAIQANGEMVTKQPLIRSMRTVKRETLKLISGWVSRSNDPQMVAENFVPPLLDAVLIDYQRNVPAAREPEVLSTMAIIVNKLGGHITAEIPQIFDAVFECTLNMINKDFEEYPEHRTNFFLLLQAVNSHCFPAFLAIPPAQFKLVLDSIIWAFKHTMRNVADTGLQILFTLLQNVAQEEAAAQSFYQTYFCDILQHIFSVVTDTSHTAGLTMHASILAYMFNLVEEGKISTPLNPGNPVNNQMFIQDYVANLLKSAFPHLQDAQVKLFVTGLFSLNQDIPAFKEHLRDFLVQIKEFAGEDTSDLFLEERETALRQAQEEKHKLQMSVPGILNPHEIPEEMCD
Chain of XPO1 (Homo sapiens, UniProt O14980) (O14980 whole entry): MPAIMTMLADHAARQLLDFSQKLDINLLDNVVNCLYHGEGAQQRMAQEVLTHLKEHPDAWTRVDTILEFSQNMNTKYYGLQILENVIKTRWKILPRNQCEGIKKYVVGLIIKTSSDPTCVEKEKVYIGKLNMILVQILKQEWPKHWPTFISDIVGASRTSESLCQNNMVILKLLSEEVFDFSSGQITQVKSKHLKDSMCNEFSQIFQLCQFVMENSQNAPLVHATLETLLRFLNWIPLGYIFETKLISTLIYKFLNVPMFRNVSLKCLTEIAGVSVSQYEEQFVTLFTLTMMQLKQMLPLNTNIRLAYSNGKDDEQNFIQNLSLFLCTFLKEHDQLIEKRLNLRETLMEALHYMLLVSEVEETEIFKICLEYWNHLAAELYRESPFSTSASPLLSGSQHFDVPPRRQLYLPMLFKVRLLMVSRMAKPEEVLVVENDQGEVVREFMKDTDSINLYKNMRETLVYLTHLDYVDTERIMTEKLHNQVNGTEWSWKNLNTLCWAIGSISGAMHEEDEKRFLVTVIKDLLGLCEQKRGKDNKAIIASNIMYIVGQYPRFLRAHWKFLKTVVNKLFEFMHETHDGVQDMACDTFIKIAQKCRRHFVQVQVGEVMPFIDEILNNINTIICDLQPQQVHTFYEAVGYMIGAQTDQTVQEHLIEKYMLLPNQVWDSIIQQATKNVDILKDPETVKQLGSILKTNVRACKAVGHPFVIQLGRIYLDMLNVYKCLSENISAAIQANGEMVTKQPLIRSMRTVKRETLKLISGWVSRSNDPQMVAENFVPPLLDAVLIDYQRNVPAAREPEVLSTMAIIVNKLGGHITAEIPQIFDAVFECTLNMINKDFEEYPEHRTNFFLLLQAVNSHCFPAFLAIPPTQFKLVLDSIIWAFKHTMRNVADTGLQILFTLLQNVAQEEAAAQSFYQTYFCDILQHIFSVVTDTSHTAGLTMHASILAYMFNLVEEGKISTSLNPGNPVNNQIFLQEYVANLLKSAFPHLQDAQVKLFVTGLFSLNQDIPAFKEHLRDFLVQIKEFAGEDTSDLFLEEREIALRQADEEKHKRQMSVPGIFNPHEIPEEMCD

For `O=C(/C=C\n1cnc(-c2cc(C(F)(F)F)cc(C(F)(F)F)c2)n1)NNc1cnccn1` [Selinexor, selinexor], the IC50 is 0.35 µM with HEL; 7 µM in the assay with UCH1; 0.07 µM with HT1080; 0.02 µM in the assay with MM.1S (72 hours, read-out: IC50); 0.02 µM with MM.1S (read-out: Selinexor IC50 (μM), MTT); above 10 µM in the assay with LS174T. For the same compound, the “time at which full saturation of XPO1 was achieved” value at XPO1 [1] (single oral dose of 3 mg/kg) was 4 to 24 h. Besides, the “time for which 50% XPO1 occupancy is sustained post-treatment” value on XPO1 [1] (single oral dose of 3 and 10 mg/kg) is given as “up to 72 hours”. Moreover, the “amount of selinexor required to occupy 50% of XPO1” value on XPO1 [1] (setting [3]) is 1.84 mg/kg. For the same compound, on XPO1 [1] (setting [3]), the “amount of selinexor to achieve 90% XPO1 occupancy” value was above 10 mg/kg. The “90% Occupancy” value on XPO1 [2] (fresh human PBMCs, selinexor 1 hour) was above 0.5 µM; at XPO1 [2] (human PBMCs revived from cryopreservation, selinexor 4 hours, washed), 0.04 µM.
